Experimental data as given in ChEMBL document CHEMBL5678810.

Key:
[1] = target: Mitogen-activated protein kinase kinase kinase kinase 5 (Homo sapiens) (UniProt Q9Y4K4); assay: Inhibition of T7 bacteriophage fused human MAP4K5 at 10 uM by KINOMEscan analysis relative to control
[2] = target: Tyrosine-protein kinase ABL1 (Homo sapiens) (UniProt P00519); assay: Inhibition of T7 bacteriophage fused human nonphosphorylated ABL1 at 10 uM by KINOMEscan analysis relative to control
[3] = target: Dual specificity mitogen-activated protein kinase kinase 2 (Homo sapiens) (UniProt P36507); assay: Inhibition of T7 bacteriophage fused human MEK2 at 10 uM by KINOMEscan analysis relative to control; values are per cent of control
[4] = tested on: Hepatocyte growth factor receptor (Homo sapiens), P08581 [Y1235D]; assay: Inhibition of T7 bacteriophage fused human MET Y1235D mutant at 10 uM by KINOMEscan analysis relative to control
[5] = target: Serine/threonine-protein kinase 10 (Homo sapiens) (UniProt O94804); assay: Inhibition of T7 bacteriophage fused human LOK at 10 uM by KINOMEscan analysis relative to control
[6] = target: Receptor-type tyrosine-protein kinase FLT3 (Homo sapiens) (UniProt P36888); assay: Inhibition of T7 bacteriophage fused human FLT3 at 10 uM by KINOMEscan analysis relative to control
[7] = target: Atypical kinase COQ8B, mitochondrial (Homo sapiens) (UniProt Q96D53); assay: Inhibition of T7 bacteriophage fused human ADCK4 at 10 uM by KINOMEscan analysis relative to control
[8] = target: Cyclin-dependent kinase 11B (Homo sapiens) (UniProt P21127); assay: Inhibition of T7 bacteriophage fused human CDC2L1 at 10 uM by KINOMEscan analysis relative to control
[9] = tested on: Phosphatidylinositol 4,5-bisphosphate 3-kinase catalytic subunit alpha isoform (Homo sapiens), P42336 [I800L]; assay: Inhibition of T7 bacteriophage fused human PIK3CA I800L mutant at 10 uM by KINOMEscan analysis relative to control
[10] = target: Serine/threonine-protein kinase MARK1 (Homo sapiens) (UniProt Q9P0L2); assay: Inhibition of T7 bacteriophage fused human MARK1 at 10 uM by KINOMEscan analysis relative to control; values are per cent of control
[11] = target: Ephrin type-B receptor 4 (Homo sapiens) (UniProt P54760); assay: Inhibition of T7 bacteriophage fused human EPHB4 at 10 uM by KINOMEscan analysis relative to control
[12] = target: Calcium/calmodulin-dependent protein kinase type II subunit alpha (Homo sapiens) (UniProt Q9UQM7); assay: Inhibition of T7 bacteriophage fused human CAMK2A at 10 uM by KINOMEscan analysis relative to control
[13] = target: Dual specificity tyrosine-phosphorylation-regulated kinase 2 (Homo sapiens) (UniProt Q92630); assay: Inhibition of T7 bacteriophage fused human DYRK2 at 10 uM by KINOMEscan analysis relative to control; values are per cent of control
[14] = target: Phosphatidylinositol 4-phosphate 3-kinase C2 domain-containing subunit beta (Homo sapiens) (UniProt O00750); assay: Inhibition of T7 bacteriophage fused human PIK3C2B at 10 uM by KINOMEscan analysis relative to control
[15] = tested on: Receptor-type tyrosine-protein kinase FLT3 (Homo sapiens), P36888 [D835H]; assay: Inhibition of T7 bacteriophage fused human FLT3 D835H mutant at 10 uM by KINOMEscan analysis relative to control
[16] = target: Inhibitor of nuclear factor kappa-B kinase subunit beta (Homo sapiens) (UniProt O14920); assay: Inhibition of T7 bacteriophage fused human IKK-beta at 10 uM by KINOMEscan analysis relative to control
[17] = target: Phosphorylase b kinase gamma catalytic chain, liver/testis isoform (Homo sapiens) (UniProt P15735); assay: Inhibition of T7 bacteriophage fused human PHKG2 at 10 uM by KINOMEscan analysis relative to control
[18] = tested on: Mast/stem cell growth factor receptor Kit (Homo sapiens), P10721 [V559D]; assay: Inhibition of T7 bacteriophage fused human KIT V559D mutant at 10 uM by KINOMEscan analysis relative to control
[19] = target: Ribosomal protein S6 kinase alpha-6 (Homo sapiens) (UniProt Q9UK32); assay: Inhibition of T7 bacteriophage fused human C-terminal RSK4 Kinase domain-2 at 10 uM by KINOMEscan analysis relative to control
[20] = target: Serine/threonine-protein kinase Nek5 (Homo sapiens) (UniProt Q6P3R8); assay: Inhibition of T7 bacteriophage fused human NEK5 at 10 uM by KINOMEscan analysis relative to control
[21] = target: Cyclin-dependent kinase 17 (Homo sapiens) (UniProt Q00537); assay: Inhibition of T7 bacteriophage fused human PCTK2 at 10 uM by KINOMEscan analysis relative to control
[22] = target: Serine/threonine-protein kinase 25 (Homo sapiens) (UniProt O00506); assay: Inhibition of T7 bacteriophage fused human YSK1 at 10 uM by KINOMEscan analysis relative to control
[23] = target: 3-phosphoinositide-dependent protein kinase 1 (Homo sapiens) (UniProt O15530); assay: Inhibition of T7 bacteriophage fused human PDPK1 at 10 uM by KINOMEscan analysis relative to control
[24] = target: Myosin light chain kinase 2, skeletal/cardiac muscle (Homo sapiens) (UniProt Q9H1R3); assay: Inhibition of T7 bacteriophage fused human MYLK2 at 10 uM by KINOMEscan analysis relative to control; values are per cent of control
[25] = tested on: Phosphatidylinositol 4,5-bisphosphate 3-kinase catalytic subunit alpha isoform (Homo sapiens), P42336 [M1043I]; assay: Inhibition of T7 bacteriophage fused human PIK3CA M1043I mutant at 10 uM by KINOMEscan analysis relative to control
[26] = target: Phosphorylase b kinase gamma catalytic chain, skeletal muscle/heart isoform (Homo sapiens) (UniProt Q16816); assay: Inhibition of T7 bacteriophage fused human PHKG1 at 10 uM by KINOMEscan analysis relative to control
[27] = tested on: Receptor-type tyrosine-protein kinase FLT3 (Homo sapiens), P36888 [R834Q]; assay: Inhibition of T7 bacteriophage fused human FLT3 R834Q mutant at 10 uM by KINOMEscan analysis relative to control
[28] = tested on: Epidermal growth factor receptor (Homo sapiens), P00533 [L861Q]; assay: Inhibition of T7 bacteriophage fused human EGFR L861Q mutant at 10 uM by KINOMEscan analysis relative to control
[29] = target: MAP kinase-activated protein kinase 5 (Homo sapiens) (UniProt Q8IW41); assay: Inhibition of T7 bacteriophage fused human MAPKAPK5 at 10 uM by KINOMEscan analysis relative to control; values are per cent of control
[30] = target: Homeodomain-interacting protein kinase 1 (Homo sapiens) (UniProt Q86Z02); assay: Inhibition of T7 bacteriophage fused human HIPK1 at 10 uM by KINOMEscan analysis relative to control

Chain of Phosphatidylinositol 4-phosphate 3-kinase C2 domain-containing subunit beta (Homo sapiens) (O00750 whole entry, the tested form may be a part): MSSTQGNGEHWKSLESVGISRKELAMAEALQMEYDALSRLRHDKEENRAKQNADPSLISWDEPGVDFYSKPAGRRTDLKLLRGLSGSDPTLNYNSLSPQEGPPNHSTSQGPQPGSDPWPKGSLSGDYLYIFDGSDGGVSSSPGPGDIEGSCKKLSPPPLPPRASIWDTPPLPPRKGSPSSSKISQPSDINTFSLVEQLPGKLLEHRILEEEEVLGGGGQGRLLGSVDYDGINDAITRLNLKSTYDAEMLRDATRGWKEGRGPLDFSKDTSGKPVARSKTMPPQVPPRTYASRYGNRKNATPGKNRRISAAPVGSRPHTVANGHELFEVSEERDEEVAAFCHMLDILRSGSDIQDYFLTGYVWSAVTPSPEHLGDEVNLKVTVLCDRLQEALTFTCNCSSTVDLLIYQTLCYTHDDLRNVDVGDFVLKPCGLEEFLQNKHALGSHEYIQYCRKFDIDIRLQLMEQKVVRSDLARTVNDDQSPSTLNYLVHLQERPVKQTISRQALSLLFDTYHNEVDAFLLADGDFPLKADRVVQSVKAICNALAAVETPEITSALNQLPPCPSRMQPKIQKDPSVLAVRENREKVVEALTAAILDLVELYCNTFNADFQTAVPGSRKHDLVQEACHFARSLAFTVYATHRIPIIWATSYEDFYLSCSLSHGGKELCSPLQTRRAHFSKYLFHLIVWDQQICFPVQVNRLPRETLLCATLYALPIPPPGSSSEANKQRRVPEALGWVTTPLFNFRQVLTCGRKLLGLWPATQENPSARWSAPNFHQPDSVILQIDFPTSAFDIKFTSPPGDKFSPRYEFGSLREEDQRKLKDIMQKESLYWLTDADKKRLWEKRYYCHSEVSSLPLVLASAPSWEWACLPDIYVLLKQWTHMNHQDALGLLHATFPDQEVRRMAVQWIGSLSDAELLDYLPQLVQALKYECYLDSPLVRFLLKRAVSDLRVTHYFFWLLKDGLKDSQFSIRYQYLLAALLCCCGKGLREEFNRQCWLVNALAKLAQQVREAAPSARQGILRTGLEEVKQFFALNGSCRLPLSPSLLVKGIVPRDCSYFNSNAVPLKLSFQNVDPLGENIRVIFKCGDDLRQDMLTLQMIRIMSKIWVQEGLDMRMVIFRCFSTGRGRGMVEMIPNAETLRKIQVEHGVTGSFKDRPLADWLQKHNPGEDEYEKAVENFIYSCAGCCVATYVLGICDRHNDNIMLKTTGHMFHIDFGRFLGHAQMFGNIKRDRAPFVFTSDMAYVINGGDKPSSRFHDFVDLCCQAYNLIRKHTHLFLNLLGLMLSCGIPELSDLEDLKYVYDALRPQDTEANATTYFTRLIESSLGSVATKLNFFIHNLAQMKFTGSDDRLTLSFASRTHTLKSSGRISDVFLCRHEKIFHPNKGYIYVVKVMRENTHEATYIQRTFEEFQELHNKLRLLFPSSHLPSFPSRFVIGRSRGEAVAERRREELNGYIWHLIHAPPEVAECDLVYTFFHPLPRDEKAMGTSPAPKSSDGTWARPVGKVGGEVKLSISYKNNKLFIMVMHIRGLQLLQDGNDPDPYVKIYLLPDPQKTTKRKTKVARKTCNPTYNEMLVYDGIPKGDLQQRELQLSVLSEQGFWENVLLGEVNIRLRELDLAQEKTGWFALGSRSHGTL
Chain of Myosin light chain kinase 2, skeletal/cardiac muscle (Homo sapiens) (Q9H1R3 whole entry, the tested form may be a part, canonical isoform): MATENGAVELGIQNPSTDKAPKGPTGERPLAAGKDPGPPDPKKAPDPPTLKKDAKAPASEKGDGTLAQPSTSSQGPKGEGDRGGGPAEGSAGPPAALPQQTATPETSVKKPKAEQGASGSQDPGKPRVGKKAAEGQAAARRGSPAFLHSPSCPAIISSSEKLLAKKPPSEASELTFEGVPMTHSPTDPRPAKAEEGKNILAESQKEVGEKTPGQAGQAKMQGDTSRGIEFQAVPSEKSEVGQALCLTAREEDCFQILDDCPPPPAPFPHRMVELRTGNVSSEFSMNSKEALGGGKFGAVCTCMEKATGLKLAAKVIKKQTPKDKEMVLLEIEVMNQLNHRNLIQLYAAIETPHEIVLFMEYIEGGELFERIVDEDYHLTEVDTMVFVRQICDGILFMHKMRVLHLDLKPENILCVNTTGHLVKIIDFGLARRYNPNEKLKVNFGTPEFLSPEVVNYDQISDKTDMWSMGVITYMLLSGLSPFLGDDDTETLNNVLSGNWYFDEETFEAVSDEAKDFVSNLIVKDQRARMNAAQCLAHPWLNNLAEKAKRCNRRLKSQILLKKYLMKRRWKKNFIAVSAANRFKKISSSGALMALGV
Chain of Epidermal growth factor receptor (Homo sapiens), P00533 [L861Q] (P00533 whole entry L861Q, the tested form may be a part): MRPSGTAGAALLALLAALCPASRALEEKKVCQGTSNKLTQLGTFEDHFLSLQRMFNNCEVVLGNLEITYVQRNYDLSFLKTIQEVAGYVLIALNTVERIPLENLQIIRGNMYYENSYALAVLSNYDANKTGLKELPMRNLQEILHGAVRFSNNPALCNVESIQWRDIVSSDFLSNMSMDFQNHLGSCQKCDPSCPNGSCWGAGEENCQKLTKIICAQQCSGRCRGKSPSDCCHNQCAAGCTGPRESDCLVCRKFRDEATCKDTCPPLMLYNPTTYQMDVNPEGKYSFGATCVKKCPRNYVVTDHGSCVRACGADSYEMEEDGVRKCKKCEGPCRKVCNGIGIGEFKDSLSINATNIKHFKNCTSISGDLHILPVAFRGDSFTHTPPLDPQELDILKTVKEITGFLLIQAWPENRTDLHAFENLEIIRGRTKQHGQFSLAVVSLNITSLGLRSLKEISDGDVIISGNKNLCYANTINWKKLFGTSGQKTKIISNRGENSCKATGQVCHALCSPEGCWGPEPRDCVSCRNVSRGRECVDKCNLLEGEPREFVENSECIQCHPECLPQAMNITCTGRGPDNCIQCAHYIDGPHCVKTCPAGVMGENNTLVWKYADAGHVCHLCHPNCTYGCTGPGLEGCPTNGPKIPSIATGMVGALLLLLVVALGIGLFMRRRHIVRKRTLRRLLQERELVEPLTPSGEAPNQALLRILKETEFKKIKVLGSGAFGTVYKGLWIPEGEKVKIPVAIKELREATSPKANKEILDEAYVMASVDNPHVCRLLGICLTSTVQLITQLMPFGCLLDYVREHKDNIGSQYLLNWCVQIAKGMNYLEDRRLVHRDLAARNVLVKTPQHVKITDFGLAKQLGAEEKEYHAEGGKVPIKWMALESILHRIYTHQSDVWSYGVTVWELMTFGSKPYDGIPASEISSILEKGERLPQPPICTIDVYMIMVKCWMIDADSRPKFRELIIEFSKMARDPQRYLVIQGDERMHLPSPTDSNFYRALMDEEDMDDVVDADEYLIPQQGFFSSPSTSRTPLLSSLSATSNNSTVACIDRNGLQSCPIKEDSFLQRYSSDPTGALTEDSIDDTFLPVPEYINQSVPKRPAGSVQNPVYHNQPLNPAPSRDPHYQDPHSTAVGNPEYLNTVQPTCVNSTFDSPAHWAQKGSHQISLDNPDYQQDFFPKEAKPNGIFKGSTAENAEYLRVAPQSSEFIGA
Chain of Serine/threonine-protein kinase 25 (Homo sapiens) (O00506 whole entry, looked up, the tested form may be a part): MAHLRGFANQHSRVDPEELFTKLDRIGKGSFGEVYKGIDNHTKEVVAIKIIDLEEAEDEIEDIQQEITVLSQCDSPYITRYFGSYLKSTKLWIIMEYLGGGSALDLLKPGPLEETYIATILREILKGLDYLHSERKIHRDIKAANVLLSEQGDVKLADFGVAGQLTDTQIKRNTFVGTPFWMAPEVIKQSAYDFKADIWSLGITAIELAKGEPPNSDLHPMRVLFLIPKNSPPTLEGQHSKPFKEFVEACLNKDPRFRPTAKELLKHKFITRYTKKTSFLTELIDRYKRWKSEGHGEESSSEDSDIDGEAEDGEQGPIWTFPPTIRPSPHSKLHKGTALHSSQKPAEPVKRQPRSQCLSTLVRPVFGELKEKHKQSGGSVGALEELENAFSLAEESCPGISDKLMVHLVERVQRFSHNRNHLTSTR
Chain of Mitogen-activated protein kinase kinase kinase kinase 5 (Homo sapiens) (Q9Y4K4 whole entry, looked up, the tested form may be a part): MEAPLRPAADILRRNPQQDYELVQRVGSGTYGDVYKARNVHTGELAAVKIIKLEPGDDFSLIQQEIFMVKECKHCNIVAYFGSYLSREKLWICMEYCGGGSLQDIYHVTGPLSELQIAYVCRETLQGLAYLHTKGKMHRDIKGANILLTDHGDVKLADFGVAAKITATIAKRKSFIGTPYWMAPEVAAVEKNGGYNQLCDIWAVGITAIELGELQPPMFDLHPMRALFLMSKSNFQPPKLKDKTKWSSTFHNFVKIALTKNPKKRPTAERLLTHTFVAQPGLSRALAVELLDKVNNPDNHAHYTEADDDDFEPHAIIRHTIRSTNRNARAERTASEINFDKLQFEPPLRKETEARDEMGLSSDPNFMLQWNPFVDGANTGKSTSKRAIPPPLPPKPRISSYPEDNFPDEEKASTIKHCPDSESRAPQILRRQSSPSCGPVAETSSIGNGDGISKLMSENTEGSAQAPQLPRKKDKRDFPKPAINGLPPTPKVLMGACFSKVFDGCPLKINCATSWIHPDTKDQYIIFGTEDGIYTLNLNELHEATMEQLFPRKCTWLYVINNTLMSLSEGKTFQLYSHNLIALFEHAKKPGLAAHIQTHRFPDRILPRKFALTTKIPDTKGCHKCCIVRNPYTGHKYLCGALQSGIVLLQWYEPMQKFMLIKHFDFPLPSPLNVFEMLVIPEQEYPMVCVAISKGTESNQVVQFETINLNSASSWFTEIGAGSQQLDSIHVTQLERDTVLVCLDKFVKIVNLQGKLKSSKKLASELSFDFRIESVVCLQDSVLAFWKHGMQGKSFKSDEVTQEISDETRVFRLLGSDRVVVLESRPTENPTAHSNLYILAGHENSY
Chain of Phosphorylase b kinase gamma catalytic chain, skeletal muscle/heart isoform (Homo sapiens) (Q16816 whole entry, looked up, the tested form may be a part, canonical isoform): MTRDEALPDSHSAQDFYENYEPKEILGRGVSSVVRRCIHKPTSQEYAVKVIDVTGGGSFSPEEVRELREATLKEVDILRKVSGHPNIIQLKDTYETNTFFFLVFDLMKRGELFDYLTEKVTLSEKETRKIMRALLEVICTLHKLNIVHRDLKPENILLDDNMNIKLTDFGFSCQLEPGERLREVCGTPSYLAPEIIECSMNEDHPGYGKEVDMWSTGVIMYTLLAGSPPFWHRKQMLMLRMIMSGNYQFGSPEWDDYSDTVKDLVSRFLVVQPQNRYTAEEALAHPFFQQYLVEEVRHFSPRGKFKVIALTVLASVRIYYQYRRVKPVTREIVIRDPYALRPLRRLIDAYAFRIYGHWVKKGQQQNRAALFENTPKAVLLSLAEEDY

COc1cc(N2CCC(N3CCN(C)CC3)CC2)ccc1Nc1ncc2c(n1)N(C)c1ccccc1C(=O)N2C
inhibition [1]: 100% | inhibition [2]: 100% | residual activity [3]: 99% | inhibition [4]: 100% | inhibition [5]: 100% | inhibition [6]: 100% | inhibition [7]: 94% | inhibition [8]: 84% | inhibition [9]: 38% | residual activity [10]: 87% | inhibition [11]: 100% | inhibition [12]: 21% | residual activity [13]: 76% | inhibition [14]: 100% | inhibition [15]: 100% | inhibition [16]: 89% | inhibition [17]: 33% | inhibition [18]: 100% | inhibition [19]: 2.2% | inhibition [20]: 100% | inhibition [21]: 83% | inhibition [22]: 68% | inhibition [23]: 100% | residual activity [24]: 98% | inhibition [25]: 65% | inhibition [26]: 54% | inhibition [27]: 100% | inhibition [28]: 100% | residual activity [29]: 97% | inhibition [30]: 100%
